Measured values as given in ChEMBL document CHEMBL4507304, “Data for DCP probe TP-021” (2021).

Tests used:
[1] = molecular target: Mitogen-activated protein kinase 7 (Homo sapiens) (UniProt Q13164); conditions: Compound concentration 1000.0 nM
[2] = molecular target: Serine/threonine-protein kinase BRSK1 (Homo sapiens) (UniProt Q8TDC3); conditions: Compound concentration 1000.0 nM
[3] = molecular target: Bone morphogenetic protein receptor type-1A (Homo sapiens) (UniProt P36894); conditions: Compound concentration 1000.0 nM
[4] = molecular target: LIM domain kinase 2 (Homo sapiens) (UniProt P53671); conditions: Compound concentration 1000.0 nM
[5] = molecular target: Serine/threonine-protein kinase 24 (Homo sapiens) (UniProt Q9Y6E0); conditions: Compound concentration 1000.0 nM
[6] = molecular target: Proto-oncogene tyrosine-protein kinase Src (Homo sapiens) (UniProt P12931); conditions: Compound concentration 1000.0 nM
[7] = test system: Tyrosine-protein kinase ABL1 (Homo sapiens), P00519 [E255K]; conditions: Compound concentration 1000.0 nM
[8] = molecular target: Casein kinase I isoform gamma-1 (Homo sapiens) (UniProt Q9HCP0); conditions: Compound concentration 1000.0 nM
[9] = molecular target: Eukaryotic translation initiation factor 2-alpha kinase 1 (Homo sapiens) (UniProt Q9BQI3); conditions: Compound concentration 1000.0 nM
[10] = molecular target: Serine/threonine-protein kinase MARK2 (Homo sapiens) (UniProt Q7KZI7); conditions: Compound concentration 1000.0 nM
[11] = molecular target: Phosphatidylinositol 5-phosphate 4-kinase type-2 gamma (Homo sapiens) (UniProt Q8TBX8); conditions: Compound concentration 1000.0 nM
[12] = molecular target: High affinity nerve growth factor receptor (Homo sapiens) (UniProt P04629); conditions: Compound concentration 1000.0 nM
[13] = molecular target: 5'-AMP-activated protein kinase catalytic subunit alpha-1 (Homo sapiens) (UniProt Q13131); conditions: Compound concentration 1000.0 nM
[14] = molecular target: Inhibitor of nuclear factor kappa-B kinase subunit alpha (Homo sapiens) (UniProt O15111); conditions: Compound concentration 1000.0 nM
[15] = molecular target: Protein kinase C iota type (Homo sapiens) (UniProt P41743); conditions: Compound concentration 1000.0 nM
[16] = molecular target: Serine/threonine-protein kinase OSR1 (Homo sapiens) (UniProt O95747); conditions: Compound concentration 1000.0 nM
[17] = molecular target: RAC-beta serine/threonine-protein kinase (Homo sapiens) (UniProt P31751); conditions: Compound concentration 1000.0 nM
[18] = molecular target: Mitogen-activated protein kinase kinase kinase 15 (Homo sapiens) (UniProt Q6ZN16); conditions: Compound concentration 1000.0 nM
[19] = molecular target: Cyclin-dependent kinase 11A (Homo sapiens) (UniProt Q9UQ88); conditions: Compound concentration 1000.0 nM
[20] = molecular target: Dual specificity tyrosine-phosphorylation-regulated kinase 1A (Homo sapiens) (UniProt Q13627); conditions: Compound concentration 1000.0 nM
[21] = molecular target: Glycogen synthase kinase-3 alpha (Homo sapiens) (UniProt P49840); conditions: Compound concentration 1000.0 nM
[22] = molecular target: Tyrosine-protein kinase FRK (Homo sapiens) (UniProt P42685); conditions: Compound concentration 1000.0 nM
[23] = molecular target: D(4) dopamine receptor (Homo sapiens) (UniProt P21917); conditions: Compound concentration 10.0 uM
[24] = molecular target: Insulin-like growth factor 1 receptor (Homo sapiens) (UniProt P08069); conditions: Compound concentration 1000.0 nM
[25] = molecular target: Protein kinase C delta type (Homo sapiens) (UniProt Q05655); conditions: Compound concentration 1000.0 nM
[26] = molecular target: 1-phosphatidylinositol 3-phosphate 5-kinase (Homo sapiens) (UniProt Q9Y2I7); conditions: Compound concentration 1000.0 nM
[27] = molecular target: Mitogen-activated protein kinase 12 (Homo sapiens) (UniProt P53778); conditions: Compound concentration 1000.0 nM
[28] = molecular target: cAMP-dependent protein kinase catalytic subunit PRKX (Homo sapiens) (UniProt P51817); conditions: Compound concentration 1000.0 nM
[29] = molecular target: Homeodomain-interacting protein kinase 3 (Homo sapiens) (UniProt Q9H422); conditions: Compound concentration 1000.0 nM
[30] = molecular target: Homeodomain-interacting protein kinase 4 (Homo sapiens) (UniProt Q8NE63); conditions: Compound concentration 1000.0 nM
[31] = molecular target: cAMP-dependent protein kinase catalytic subunit alpha (Homo sapiens) (UniProt P17612); conditions: Compound concentration 1000.0 nM
[32] = molecular target: Casein kinase II subunit alpha (Homo sapiens) (UniProt P68400); conditions: Compound concentration 1000.0 nM
[33] = molecular target: Bone morphogenetic protein receptor type-2 (Homo sapiens) (UniProt Q13873); conditions: Compound concentration 1000.0 nM
[34] = test system: Phosphatidylinositol 4,5-bisphosphate 3-kinase catalytic subunit alpha isoform (Homo sapiens), P42336 [E545A]; conditions: Compound concentration 1000.0 nM
[35] = molecular target: Mitogen-activated protein kinase kinase kinase kinase 1 (Homo sapiens) (UniProt Q92918); conditions: Compound concentration 1000.0 nM
[36] = molecular target: Serine/threonine-protein kinase 25 (Homo sapiens) (UniProt O00506); conditions: Compound concentration 1000.0 nM
[37] = molecular target: cGMP-dependent protein kinase 2 (Homo sapiens) (UniProt Q13237); conditions: Compound concentration 1000.0 nM
[38] = molecular target: Ankyrin repeat and protein kinase domain-containing protein 1 (Homo sapiens) (UniProt Q8NFD2); conditions: Compound concentration 1000.0 nM
[39] = molecular target: Mitogen-activated protein kinase kinase kinase 4 (Homo sapiens) (UniProt Q9Y6R4); conditions: Compound concentration 1000.0 nM
[40] = test system: Epidermal growth factor receptor (Homo sapiens), P00533 [UNDEFINED MUTATION]; conditions: Compound concentration 1000.0 nM
[41] = molecular target: Serine/threonine-protein kinase RIO3 (Homo sapiens) (UniProt O14730); conditions: Compound concentration 1000.0 nM
[42] = molecular target: Ephrin type-A receptor 3 (Homo sapiens) (UniProt P29320); conditions: Compound concentration 1000.0 nM
[43] = molecular target: Myotonin-protein kinase (Homo sapiens) (UniProt Q09013); conditions: Compound concentration 1000.0 nM

Chain of Protein kinase C delta type (Homo sapiens) (Q05655 whole entry, looked up): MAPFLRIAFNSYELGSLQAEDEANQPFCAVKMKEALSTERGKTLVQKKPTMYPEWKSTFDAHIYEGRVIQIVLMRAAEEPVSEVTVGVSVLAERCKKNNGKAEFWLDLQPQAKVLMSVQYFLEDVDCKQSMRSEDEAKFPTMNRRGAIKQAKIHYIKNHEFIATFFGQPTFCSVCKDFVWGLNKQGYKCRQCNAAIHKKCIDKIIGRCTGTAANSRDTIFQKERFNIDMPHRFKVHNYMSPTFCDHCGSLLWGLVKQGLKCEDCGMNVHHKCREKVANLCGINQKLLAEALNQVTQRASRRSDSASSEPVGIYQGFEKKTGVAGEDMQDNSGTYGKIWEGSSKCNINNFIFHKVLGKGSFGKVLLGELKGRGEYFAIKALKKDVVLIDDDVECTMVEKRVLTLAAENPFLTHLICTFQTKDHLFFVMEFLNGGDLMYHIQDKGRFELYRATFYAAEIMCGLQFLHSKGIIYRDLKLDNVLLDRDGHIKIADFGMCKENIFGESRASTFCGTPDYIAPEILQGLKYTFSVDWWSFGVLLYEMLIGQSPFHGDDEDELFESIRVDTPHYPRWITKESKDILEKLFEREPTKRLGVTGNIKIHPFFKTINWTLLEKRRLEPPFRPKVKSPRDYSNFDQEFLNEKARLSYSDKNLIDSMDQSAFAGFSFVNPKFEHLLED
Chain of Epidermal growth factor receptor (Homo sapiens), P00533 [UNDEFINED MUTATION] (P00533 whole entry, looked up, change not shown): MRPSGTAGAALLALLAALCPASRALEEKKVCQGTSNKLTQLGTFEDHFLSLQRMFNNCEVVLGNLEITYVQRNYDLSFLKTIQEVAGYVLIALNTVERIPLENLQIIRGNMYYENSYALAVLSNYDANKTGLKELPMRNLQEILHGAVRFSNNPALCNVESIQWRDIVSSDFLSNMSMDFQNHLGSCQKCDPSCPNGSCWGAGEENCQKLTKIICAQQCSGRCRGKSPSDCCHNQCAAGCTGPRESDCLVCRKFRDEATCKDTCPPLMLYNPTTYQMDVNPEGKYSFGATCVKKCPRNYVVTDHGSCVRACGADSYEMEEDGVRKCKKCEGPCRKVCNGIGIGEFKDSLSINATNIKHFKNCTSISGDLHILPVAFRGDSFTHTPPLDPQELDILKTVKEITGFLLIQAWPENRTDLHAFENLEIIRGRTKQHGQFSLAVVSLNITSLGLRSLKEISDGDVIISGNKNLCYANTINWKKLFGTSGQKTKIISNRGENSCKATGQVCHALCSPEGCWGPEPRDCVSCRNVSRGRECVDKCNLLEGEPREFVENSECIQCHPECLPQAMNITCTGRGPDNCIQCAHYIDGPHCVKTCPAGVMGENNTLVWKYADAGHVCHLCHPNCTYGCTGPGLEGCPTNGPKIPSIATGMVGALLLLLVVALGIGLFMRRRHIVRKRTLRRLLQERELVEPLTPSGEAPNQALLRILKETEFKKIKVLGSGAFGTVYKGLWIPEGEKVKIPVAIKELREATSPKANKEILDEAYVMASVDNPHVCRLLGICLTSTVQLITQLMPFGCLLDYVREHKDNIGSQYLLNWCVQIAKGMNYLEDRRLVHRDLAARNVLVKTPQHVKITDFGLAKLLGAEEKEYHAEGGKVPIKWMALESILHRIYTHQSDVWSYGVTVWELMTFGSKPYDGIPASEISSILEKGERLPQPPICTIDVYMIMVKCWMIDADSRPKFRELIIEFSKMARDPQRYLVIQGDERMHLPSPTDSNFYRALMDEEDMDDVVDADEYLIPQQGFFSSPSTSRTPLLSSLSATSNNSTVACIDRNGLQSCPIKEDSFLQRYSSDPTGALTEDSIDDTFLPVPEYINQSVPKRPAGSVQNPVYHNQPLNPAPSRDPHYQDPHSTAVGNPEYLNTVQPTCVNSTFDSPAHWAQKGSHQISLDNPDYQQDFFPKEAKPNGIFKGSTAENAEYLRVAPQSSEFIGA
Chain of Mitogen-activated protein kinase kinase kinase 15 (Homo sapiens) (Q6ZN16 whole entry): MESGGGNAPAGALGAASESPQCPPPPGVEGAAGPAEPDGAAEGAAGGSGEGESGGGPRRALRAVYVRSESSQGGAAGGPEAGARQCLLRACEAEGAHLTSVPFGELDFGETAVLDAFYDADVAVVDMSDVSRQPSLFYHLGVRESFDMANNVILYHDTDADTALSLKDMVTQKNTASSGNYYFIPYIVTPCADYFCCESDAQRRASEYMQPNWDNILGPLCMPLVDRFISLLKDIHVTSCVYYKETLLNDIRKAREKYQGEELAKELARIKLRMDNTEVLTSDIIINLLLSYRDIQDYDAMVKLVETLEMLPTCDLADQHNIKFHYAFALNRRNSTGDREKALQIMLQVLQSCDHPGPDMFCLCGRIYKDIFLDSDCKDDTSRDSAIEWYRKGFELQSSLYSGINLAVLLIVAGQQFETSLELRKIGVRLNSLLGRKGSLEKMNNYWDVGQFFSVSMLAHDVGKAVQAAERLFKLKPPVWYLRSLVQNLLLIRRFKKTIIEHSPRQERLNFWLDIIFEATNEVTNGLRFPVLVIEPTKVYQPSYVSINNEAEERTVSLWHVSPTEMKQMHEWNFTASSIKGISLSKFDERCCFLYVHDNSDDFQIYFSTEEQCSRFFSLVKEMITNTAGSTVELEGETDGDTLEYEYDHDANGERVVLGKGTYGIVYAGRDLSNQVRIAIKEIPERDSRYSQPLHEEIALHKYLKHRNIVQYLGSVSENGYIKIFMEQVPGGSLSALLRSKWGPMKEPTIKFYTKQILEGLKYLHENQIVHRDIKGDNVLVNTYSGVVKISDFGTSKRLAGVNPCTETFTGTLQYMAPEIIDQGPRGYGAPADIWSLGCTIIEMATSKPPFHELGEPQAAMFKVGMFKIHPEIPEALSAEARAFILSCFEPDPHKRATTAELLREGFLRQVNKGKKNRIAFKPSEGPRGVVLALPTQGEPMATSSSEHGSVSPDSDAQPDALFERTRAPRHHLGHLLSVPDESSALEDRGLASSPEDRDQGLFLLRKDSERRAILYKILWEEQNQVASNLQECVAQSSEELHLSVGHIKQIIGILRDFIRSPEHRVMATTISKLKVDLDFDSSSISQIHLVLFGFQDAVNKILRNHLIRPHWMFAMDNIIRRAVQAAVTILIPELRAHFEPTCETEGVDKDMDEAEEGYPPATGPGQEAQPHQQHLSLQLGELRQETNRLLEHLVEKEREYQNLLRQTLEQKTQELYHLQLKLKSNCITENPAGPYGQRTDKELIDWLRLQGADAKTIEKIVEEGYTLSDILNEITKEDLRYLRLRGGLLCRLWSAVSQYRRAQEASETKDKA
Chain of Protein kinase C iota type (Homo sapiens) (P41743 whole entry): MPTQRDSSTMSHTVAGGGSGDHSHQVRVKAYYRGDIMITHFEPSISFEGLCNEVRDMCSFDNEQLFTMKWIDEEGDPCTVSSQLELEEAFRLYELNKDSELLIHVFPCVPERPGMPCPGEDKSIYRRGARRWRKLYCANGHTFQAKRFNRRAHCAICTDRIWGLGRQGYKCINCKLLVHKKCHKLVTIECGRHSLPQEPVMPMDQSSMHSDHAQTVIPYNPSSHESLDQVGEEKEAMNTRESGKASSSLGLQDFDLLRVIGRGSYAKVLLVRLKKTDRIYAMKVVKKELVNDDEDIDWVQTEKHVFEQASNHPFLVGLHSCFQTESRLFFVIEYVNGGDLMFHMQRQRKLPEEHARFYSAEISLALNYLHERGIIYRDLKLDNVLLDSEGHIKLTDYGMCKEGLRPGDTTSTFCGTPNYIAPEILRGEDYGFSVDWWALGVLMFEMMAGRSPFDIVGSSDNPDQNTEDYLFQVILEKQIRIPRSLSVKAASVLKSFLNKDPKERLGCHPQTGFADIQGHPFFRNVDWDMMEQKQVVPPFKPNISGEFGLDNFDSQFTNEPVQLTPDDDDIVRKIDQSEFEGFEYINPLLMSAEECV
Chain of D(4) dopamine receptor (Homo sapiens) (P21917 whole entry): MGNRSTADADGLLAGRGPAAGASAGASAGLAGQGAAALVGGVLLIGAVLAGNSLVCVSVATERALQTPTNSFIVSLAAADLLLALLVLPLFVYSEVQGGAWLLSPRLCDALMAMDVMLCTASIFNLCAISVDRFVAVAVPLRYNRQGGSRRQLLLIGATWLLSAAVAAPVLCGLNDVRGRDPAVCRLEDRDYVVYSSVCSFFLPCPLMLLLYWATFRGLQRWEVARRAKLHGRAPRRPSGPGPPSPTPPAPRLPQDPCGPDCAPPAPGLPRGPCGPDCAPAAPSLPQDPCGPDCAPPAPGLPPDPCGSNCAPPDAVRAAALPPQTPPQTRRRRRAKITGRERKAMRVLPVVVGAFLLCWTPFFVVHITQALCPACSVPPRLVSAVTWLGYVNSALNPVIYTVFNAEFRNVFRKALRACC
Chain of Serine/threonine-protein kinase 24 (Homo sapiens) (Q9Y6E0 whole entry, looked up): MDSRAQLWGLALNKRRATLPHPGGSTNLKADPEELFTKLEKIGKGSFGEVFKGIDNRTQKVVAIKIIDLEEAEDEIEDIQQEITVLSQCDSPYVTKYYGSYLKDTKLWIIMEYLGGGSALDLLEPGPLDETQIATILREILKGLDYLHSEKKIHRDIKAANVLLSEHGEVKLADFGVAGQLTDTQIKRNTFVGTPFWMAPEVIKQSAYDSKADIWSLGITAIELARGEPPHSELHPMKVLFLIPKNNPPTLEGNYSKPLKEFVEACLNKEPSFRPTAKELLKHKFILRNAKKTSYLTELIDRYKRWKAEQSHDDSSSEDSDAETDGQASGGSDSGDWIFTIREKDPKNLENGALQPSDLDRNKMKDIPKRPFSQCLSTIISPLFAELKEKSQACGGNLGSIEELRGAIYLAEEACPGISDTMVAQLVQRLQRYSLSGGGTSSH
Chain of Phosphatidylinositol 5-phosphate 4-kinase type-2 gamma (Homo sapiens) (Q8TBX8 whole entry): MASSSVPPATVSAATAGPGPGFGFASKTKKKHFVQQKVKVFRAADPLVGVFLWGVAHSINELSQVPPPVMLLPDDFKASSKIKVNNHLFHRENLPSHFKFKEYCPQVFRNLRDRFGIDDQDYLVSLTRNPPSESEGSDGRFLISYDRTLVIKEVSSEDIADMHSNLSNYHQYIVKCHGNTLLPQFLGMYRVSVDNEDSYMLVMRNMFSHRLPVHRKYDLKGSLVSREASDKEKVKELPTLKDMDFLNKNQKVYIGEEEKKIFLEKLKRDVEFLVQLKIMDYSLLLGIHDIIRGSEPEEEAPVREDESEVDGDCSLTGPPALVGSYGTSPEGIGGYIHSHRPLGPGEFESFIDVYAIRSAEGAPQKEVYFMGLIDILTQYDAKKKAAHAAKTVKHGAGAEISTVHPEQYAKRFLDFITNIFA

N#Cc1ccc(Nc2ccc3[nH]c(=O)[nH]c3c2)c(Cl)c1
inactive: residual activity [1] 100% | residual activity [2] 100% | residual activity [3] 100% | residual activity [4] 100% | residual activity [5] 100% | residual activity [6] 92% | residual activity [7] 92% | residual activity [8] 100% | residual activity [9] 100% | residual activity [10] 78% | residual activity [11] 100% | residual activity [12] 93% | residual activity [13] 100% | residual activity [14] 100% | residual activity [15] 86% | residual activity [16] 75% | residual activity [17] 89% | residual activity [18] 68% | residual activity [19] 97% | residual activity [20] 100% | residual activity [21] 100% | residual activity [22] 73% | inhibition [23] -2.02% | residual activity [24] 99% | residual activity [25] 100% | residual activity [26] 82% | residual activity [27] 100% | residual activity [28] 100% | residual activity [29] 94% | residual activity [30] 100% | residual activity [31] 96% | residual activity [32] 80% | residual activity [33] 91% | residual activity [34] 100% | residual activity [35] 100% | residual activity [36] 100% | residual activity [37] 87% | residual activity [38] 100% | residual activity [39] 95% | residual activity [40] 100% | residual activity [41] 100% | residual activity [42] 86% | residual activity [43] 81%

O=C1CCc2cc(Nc3cc(OC4CCOCC4)c([N+](=O)[O-])cc3Cl)ccc2N1
inactive: residual activity [1] 100% | residual activity [2] 100% | residual activity [3] 97% | residual activity [4] 100% | residual activity [5] 97% | residual activity [6] 100% | residual activity [7] 88% | residual activity [8] 97% | residual activity [9] 100% | residual activity [10] 71% | residual activity [11] 100% | residual activity [12] 94% | residual activity [13] 100% | residual activity [14] 100% | residual activity [15] 98% | residual activity [16] 83% | residual activity [17] 82% | residual activity [18] 78% | residual activity [19] 100% | residual activity [20] 80% | residual activity [21] 100% | residual activity [22] 73% | inhibition [23] -2.6% | residual activity [24] 86% | residual activity [25] 100% | residual activity [26] 83% | residual activity [27] 100% | residual activity [28] 100% | residual activity [29] 91% | residual activity [30] 98% | residual activity [31] 96% | residual activity [32] 84% | residual activity [33] 92% | residual activity [34] 100% | residual activity [35] 100% | residual activity [36] 100% | residual activity [37] 85% | residual activity [38] 82% | residual activity [39] 85% | residual activity [40] 92% | residual activity [41] 100% | residual activity [42] 83% | residual activity [43] 96%
